According to EPA's CvTdb concentration-time database (doi:10.1093/toxsci/kfy020):

What was measured:
Test in all cases: concentration in plasma after dosing
rat [1] = conditions: dosed: Cyclanilide, 1.0000000000 mg/kg, oral, male, Sprague-Dawley
rat [2] = conditions: dosed: Cyclanilide, 0.2000000000 mg/kg, iv, male, Sprague-Dawley
rat [3] = conditions: dosed: Cyclanilide, male, Sprague-Dawley
rat [4] = conditions: dosed: Cyclanilide, 0.2000000000 mg/kg, iv, male, Sprague-Dawley; remark: listed apart in the source
rat [5] = conditions: dosed: Cyclanilide, 1.0000000000 mg/kg, oral, male, Sprague-Dawley; remark: listed apart in the source
rat [6] = conditions: dosed: Cyclanilide, 1.0000000000 mg/kg, oral, male, Sprague-Dawley; remark: listed apart in the source
rat [7] = conditions: dosed: Cyclanilide, 0.2000000000 mg/kg, iv, male, Sprague-Dawley; remark: listed apart in the source

O=C(O)C1(C(=O)Nc2ccc(Cl)cc2Cl)CC1 [Cyclanilide]
concentration in plasma [ng/mL]
Conditions	rat [1]	rat [2]	rat [4]	rat [5]	rat [6]	rat [7]
0.25 h	100	–	–	869	1140	–
0.5 h	1120	1000	727	1060	646	972
1 h	1210	744	910	808	801	639
2 h	918	364	416	575	568	475
4 h	827	222	262	482	464	251
5 min	–	1520	1560	–	–	1730
8 h	507	71.9	81.1	200	336	77
10 min	–	1200	1400	–	–	2250
12 h	293	68.8	98.9	184	284	65.7
24 h	101	7.7	6.5	39.6	18.7	8
48 h	1.3	3.1	0.8	–	1.5	2.1
72 h	1.2	–	1.2	–	1.3	1.7

rat [3]
Conditions	concentration in plasma [ng/mL]
0.25 h, 1.0000000000 mg/kg, oral	1720
0.5 h, 0.2000000000 mg/kg, iv	1140
0.5 h, 1.0000000000 mg/kg, oral	1470
1 h, 0.2000000000 mg/kg, iv	982
1 h, 1.0000000000 mg/kg, oral	1150
2 h, 0.2000000000 mg/kg, iv	553
2 h, 1.0000000000 mg/kg, oral	780
4 h, 0.2000000000 mg/kg, iv	412
4 h, 1.0000000000 mg/kg, oral	518
5 min, 0.2000000000 mg/kg, iv	1960
8 h, 0.2000000000 mg/kg, iv	156
8 h, 1.0000000000 mg/kg, oral	617
10 min, 0.2000000000 mg/kg, iv	1780
12 h, 0.2000000000 mg/kg, iv	84.1
12 h, 1.0000000000 mg/kg, oral	234
24 h, 0.2000000000 mg/kg, iv	28.9
24 h, 1.0000000000 mg/kg, oral	24.9
48 h, 0.2000000000 mg/kg, iv	2.5
48 h, 1.0000000000 mg/kg, oral	1
72 h, 0.2000000000 mg/kg, iv	3.2
72 h, 1.0000000000 mg/kg, oral	1.5
